The values below come from patent US9370522B2, “Heterocyclic compounds for the inhibition of PASK” (BioEnergenix, LLC, priority 2009, dated 2016).

The target in one test is T1, PASK (UniProt #Q96RG2; human recombinant N-terminal GST tagged construct, residues 879-1323) (Homo sapiens, UniProt Q96RG2).
T1 construct: N-terminal GST tagged construct, residues 879-1323; GST (N); made in house; host or cells: insect cells
Description: 33P-ATP radiometric PASK kinase assay (P81 phosphocellulose, scintillation counting). The format is biochemical. The conditions noted are these: Table 2, Myelin Basic Protein 20 μM, 120 min room temperature, average of all trials, read-out: IC50 Kinase Domain. On the procedure:
Purified PASK (UniProt #Q96RG2; human recombinant N-terminal GST tagged construct, residues 879-1323) from insect cells (final concentration 5 nM) is added to freshly prepared Base Reaction Buffer containing 20 mM Hepes (pH 7.5), 10 mM MgCl2, 1 mM EGTA, 0.02% Brij35, 0.02 mg/ml BSA, 0.1 mM Na3VO4, 2 mM DTT, 1% DMSO and Myelin Basic Protein (20 μM final). Test compounds in DMSO are then added and the mixture, followed by delivery of ^33P-ATP (specific activity 0.01 μCi/μl final) to initiate the reaction. The kinase reaction is incubated for 120 min at room temperature. The entire reaction mixture is washed through onto a P81 Phosphocellulose paper and washed three times for 10 minutes in 75 mM phosphoric acid and once in methanol prior to drying and scintillation counting. When the assay was repeated for a given compound, the activity data is based on the average of all trials.

In another test the target is T2, hPASK Kinase Domain (Homo sapiens, UniProt Q96RG2).
T2 construct: made in house; host or cells: insect cells
As to the kind of experiment: Biochemical Assay for hPASK Activity (Kinase-Glo Luminescent Kinase Assay), kinase domain. The conditions noted are these: Table 1, second part (Examples 33-59). On the procedure: The assay for purified hPASK activity utilizes the Kinase-Glo Luminescent Kinase Assay (Promega), which quantifies the amount of ATP remaining in solution following kinase reaction. The assay is carried out in a 96-well plate format and is performed by adding a volume of Kinase-Glo Reagent (Promega, catalog #V3771) equal to the volume of solution in the well of a completed kinase reaction. Kinase-Glo reagent contains Luciferase and its substrate. After addition to a kinase reaction it allows to measure luminescence. The amount of ATP left in solution at the time of Kinase-Glo Plus addition is directly proportional to the luminescence that is measured in each well, and inversely correlated with kinase activity.
Purified hPASK from insect cells (0.02 μg) is added to a 50 μL reaction mix containing 40 mM Hepes (pH 7.0), 100 mM KCl, 5 mM MgCl2, 1 mM DTT and 1 ug of MBP protein. Inhibitory compounds are then added and the mixture is incubated for 10 min at 25° C. before adding 5 μL of ATP (at desired concentration). The reaction is allowed to proceed at 25° C. for 1 hour before adding 50 μL of Kinase-Glo reagent. The luminescence is measured as soon as 10 minutes after Kinase-Glo reagent is added.
A general note: Kinase-Glo reads ATP consumption through a luciferase reaction.

As usually defined, the IC50 is the concentration needed to halve the response being measured.

Where only a bound is given, the exact number is not on record here.

T2 sequence (Q96RG2 999-1251 limits assumed): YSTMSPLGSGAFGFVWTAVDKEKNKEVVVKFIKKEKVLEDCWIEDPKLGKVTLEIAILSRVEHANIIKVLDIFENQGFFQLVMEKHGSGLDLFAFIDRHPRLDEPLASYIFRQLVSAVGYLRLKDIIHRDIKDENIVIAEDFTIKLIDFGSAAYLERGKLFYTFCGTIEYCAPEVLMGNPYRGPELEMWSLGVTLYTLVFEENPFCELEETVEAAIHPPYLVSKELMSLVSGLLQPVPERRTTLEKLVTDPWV
T1 sequence (Q96RG2 879-1323, stated change not applied): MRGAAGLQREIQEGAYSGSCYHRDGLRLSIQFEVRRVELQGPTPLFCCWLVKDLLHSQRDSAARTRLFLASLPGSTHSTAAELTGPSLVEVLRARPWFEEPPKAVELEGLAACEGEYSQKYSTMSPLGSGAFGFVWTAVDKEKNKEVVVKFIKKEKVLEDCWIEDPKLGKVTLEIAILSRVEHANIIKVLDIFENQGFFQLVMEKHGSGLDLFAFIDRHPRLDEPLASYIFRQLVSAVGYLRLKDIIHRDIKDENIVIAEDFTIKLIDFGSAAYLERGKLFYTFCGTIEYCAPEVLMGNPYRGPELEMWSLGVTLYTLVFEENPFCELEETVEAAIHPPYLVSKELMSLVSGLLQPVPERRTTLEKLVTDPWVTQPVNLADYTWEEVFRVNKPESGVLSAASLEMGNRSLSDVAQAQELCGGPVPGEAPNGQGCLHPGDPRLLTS

In the case of `O=C(O)c1ccc2nc(-c3ccco3)c(-c3ccccc3)nc2c1` [Example 12, 2-(Furan-2-yl)-3-phenylquinoxaline-6-carboxylic acid], the IC50 on PASK is at most 10 µM.

With `O=C(O)c1ccc2nc(-c3ccccc3)c(-c3ccc(C(F)(F)F)cc3)nc2c1` [Example 13, 2-Phenyl-3-(4-(trifluoromethyl)phenyl)quinoxaline-6-carboxylic acid], the IC50 at PASK is at most 10 µM.

As to `Cc1nc2cc(C(=O)O)ccc2nc1-c1ccccc1` [Example 14, 3-Methyl-2-phenylquinoxaline-6-carboxylic acid], the IC50 at PASK is at least 10 µM.

In the case of `Cc1ccc(-c2nc3cc(C(=O)O)ccc3nc2-c2ccccc2)cc1` [Example 15, 2-Phenyl-3-p-tolylquinoxaline-6-carboxylic acid], on PASK, the IC50 was at most 10 µM.

For `CCOc1ccc(-c2nc3cc(C(=O)O)ccc3nc2-c2ccccc2)cc1` [Example 16, 3-(4-Ethoxyphenyl)-2-phenylquinoxaline-6-carboxylic acid], the half-maximal inhibitory concentration (IC50) at PASK was at most 10 µM.

For `COc1ccc(-c2nc3cc(C(=O)O)ccc3nc2-c2ccccc2)cc1OC` [Example 17, 3-(3,4-Dimethoxyphenyl)-2-phenylquinoxaline-6-carboxylic acid], the IC50 on PASK is at most 10 µM.

On to `O=C(O)c1ccc2nc(-c3ccccc3)c(-c3ccc4ccccc4c3)nc2c1` [Example 18, 3-(Naphthalen-2-yl)-2-phenylquinoxaline-6-carboxylic acid], for which the IC50 at PASK is at most 10 µM.

For `O=C(O)c1ccc2nc(-c3ccccc3)c(-c3cccc4ccccc34)nc2c1` [Example 19, 3-(Naphthalene-1-yl)-2-phenylquinoxaline-6-carboxylic acid], the IC50 on PASK was at most 10 µM.

Take `O=C(O)c1ccc2nc(-c3ccccc3)c(-c3ccc4c(c3)OCO4)nc2c1` [Example 20, 3-(Benzo[d][1,3]dioxol-5-yl)-2-phenylquinoxaline-6-carboxylic acid]: on PASK, the IC50 was at most 10 µM.

Regarding `O=C(O)c1ccc2nc(-c3ccccc3)c(-c3ccncc3)nc2c1` [Example 21, 2-Phenyl-3-(pyridin-4-yl)quinoxaline-6-carboxylic acid], the IC50 on PASK was at most 10 µM.

Regarding `N#Cc1ccc(-c2nc3cc(C(=O)O)ccc3nc2-c2ccccc2)cc1` [Example 22, 3-(4-Cyanophenyl)-2-phenylquinoxaline-6-carboxylic acid], the IC50 at PASK is at most 10 µM.

With `COc1ccc(-c2nc3cc(C(=O)O)ccc3nc2-c2ccccc2)cc1` [Example 23, 3-(4-Methoxyphenyl)-2-phenylquinoxaline-6-carboxylic acid], at PASK, the IC50 was at most 10 µM.

`O=C(O)c1ccc2nc(-c3ccccc3)c(-c3ccccc3-c3ccccc3)nc2c1` [Example 24, 3-(Biphenyl-2-yl)-2-phenylquinoxaline-6-carboxylic acid]: the IC50 at PASK is at least 10 µM.

Regarding `O=C(O)c1cc2nc(-c3ccc(F)cc3)c(-c3ccc(F)cc3)nc2cc1O` [Example 25, 2,3-Bis(4-fluorophenyl)-7-hydroxyquinoxaline-6-carboxylic acid], the IC50 at PASK was at most 10 µM.

On to `O=C(O)c1cc2nc(-c3ccc(Cl)cc3)c(-c3ccc(Cl)cc3)nc2cc1O` [Example 26, 2,3-Bis(4-chlorophenyl)-7-hydroxyquinoxaline-6-carboxylic acid], for which the IC50 on PASK is at least 10 µM.

`COc1ccc(-c2nc3cc(O)c(C(=O)O)cc3nc2-c2ccc(OC)cc2)cc1` [Example 27, 7-Hydroxy-2,3-bis(4-methoxyphenyl)quinoxaline-6-carboxylic acid]: at PASK, the IC50 was at most 10 µM.

For the compound `O=C(O)c1cc2nc(-c3ccc(O)cc3)c(-c3ccc(O)cc3)nc2cc1O` [Example 28, 7-Hydroxy-2,3-bis(4-hydroxyphenyl)quinoxaline-6-carboxylic acid], the IC50 on PASK was at most 10 µM.

For `O=C(O)c1cc2nc(-c3cccc(O)c3)c(-c3cccc(O)c3)nc2cc1O` [Example 29, 7-Hydroxy-2,3-bis(3-hydroxyphenyl)quinoxaline-6-carboxylic acid], on PASK, the IC50 is at least 10 µM.

As for `O=C(O)c1ccc2nc(-c3ccccc3)c(-c3ccc(Cl)cc3)nc2c1` [Example 30, 3-(4-Chlorophenyl)-2-phenylquinoxaline-6-carboxylic acid], the half-maximal inhibitory concentration (IC50) on PASK is at most 10 µM.

On to `O=C(O)c1ccc2nc(-c3ccccc3)c(-c3ccc(Br)cc3)nc2c1` [Example 31, 3-(4-Bromophenyl)-2-phenylquinoxaline-6-carboxylic acid], for which, at PASK, the IC50 is at most 10 µM.

On to `CCc1ccc(-c2nc3cc(C(=O)O)ccc3nc2-c2ccccc2)cc1` [Example 32, 3-(4-Ethylphenyl)-2-phenylquinoxaline-6-carboxylic acid], for which the IC50 on PASK is at most 10 µM.

In the case of `O=C(O)c1ccc2nc(-c3ccccc3)c(-c3ccc(CO)cc3)nc2c1` [Example 34, 3-(4-(Hydroxymethyl)phenyl)-2-phenylquinoxaline-6-carboxylic acid], on PASK, the IC50 is at most 10 µM.

`O=C(O)c1ccc(-c2nc3cc(C(=O)O)ccc3nc2-c2ccccc2)cc1` [Example 35, 3-(4-Carboxyphenyl)-2-phenylquinoxaline-6-carboxylic acid]: on PASK, the IC50 was at least 10 µM.

Consider `O=C(O)c1ccc2nc(-c3ccccc3)c(-c3ccc(OC(F)(F)F)cc3)nc2c1` [Example 36, 2-Phenyl-3-(4-(trifluoromethoxy)phenyl)quinoxaline-6-carboxylic acid], for which the IC50 at PASK is at most 10 µM.

For `O=C(O)c1ccc2nc(-c3ccccc3)c(-c3cccc(OC(F)(F)F)c3)nc2c1` [Example 37, 2-Phenyl-3-(3-(trifluoromethoxy)phenyl)quinoxaline-6-carboxylic acid], at PASK, the IC50 was at most 10 µM.

In the case of `O=C(O)c1ccc2nc(-c3ccccc3)c(-c3cccc(F)c3)nc2c1` [Example 38, 3-(3-Fluorophenyl)-2-phenylquinoxaline-6-carboxylic acid], the IC50 at PASK was at most 10 µM.

`Cc1ccccc1-c1nc2cc(C(=O)O)ccc2nc1-c1ccccc1` [Example 39, 2-Phenyl-3-o-tolylquinoxaline-6-carboxylic acid]: at PASK, the IC50 was at most 10 µM.

`Cc1cccc(-c2nc3cc(C(=O)O)ccc3nc2-c2ccccc2)c1` [Example 40, 2-Phenyl-3-m-tolylquinoxaline-6-carboxylic acid]: the IC50 at PASK was at most 10 µM.

On to `O=C(O)c1ccc2nc(-c3ccccc3)c(-c3ccc([N+](=O)[O-])cc3)nc2c1` [Example 41, 3-(4-Nitrophenyl)-2-phenylquinoxaline-6-carboxylic acid], for which the IC50 at PASK was at most 10 µM.

With `O=C(O)c1ccc2nc(-c3ccccc3)c(-c3ccoc3)nc2c1` [Example 42, 3-(Furan-3-yl)-2-phenylquinoxaline-6-carboxylic acid], on PASK, the IC50 is at most 10 µM.

In the case of `O=C(O)c1ccc2nc(-c3ccccc3)c(-c3ccsc3)nc2c1` [Example 43, 2-Phenyl-3-(thiophen-3-yl)quinoxaline-6-carboxylic acid], the IC50 on PASK was at most 10 µM.

Consider `O=C(O)c1ccc2nc(-c3ccccc3)c(-c3ccc(O)cc3)nc2c1` [Example 44, 3-(4-Hydroxyphenyl)-2-phenylquinoxaline-6-carboxylic acid], for which, at PASK, the IC50 is at most 10 µM.

Take `COc1ccc(-c2nc3cc(C(=O)O)ccc3nc2-c2ccccc2)c(OC)c1` [Example 45, 3-(2,4-Dimethoxyphenyl)-2-phenylquinoxaline-6-carboxylic acid]: the IC50 at PASK is at most 10 µM.

For the compound `O=C(O)c1ccc2nc(-c3ccccc3)c(-c3cccc(O)c3)nc2c1` [Example 46, 3-(3-Hydroxyphenyl)-2-phenylquinoxaline-6-carboxylic acid], the IC50 at PASK was at most 10 µM.

In the case of `O=C(O)c1ccc2nc(-c3ccccc3)c(-c3ccc(-c4ccccc4)cc3)nc2c1` [Example 47, 2-Phenyl-3-(4-phenyl-phenyl)quinoxaline-6-carboxylic acid], the IC50 at PASK was at most 10 µM.

With `CCc1nc2cc(C(=O)O)ccc2nc1-c1ccccc1` [Example 48, 3-Ethyl-2-phenylquinoxaline-6-carboxylic acid], the IC50 on PASK was at least 10 µM.

With `O=C(O)c1cccc(-c2nc3cc(C(=O)O)ccc3nc2-c2ccccc2)c1` [Example 50, 3-(3-Carboxyphenyl)-2-phenylquinoxaline-6-carboxylic acid], the IC50 at hPASK Kinase Domain was at most 10 µM.

In turn, `CN(c1ccc(-c2nc3cc(C(=O)O)ccc3nc2-c2ccccc2)cc1)S(C)(=O)=O` [Example 51, 3-(4-(N-Methylmethylsulfonamido)phenyl)-2-phenylquinoxaline-6-carboxylic acid] registered an IC50 at hPASK Kinase Domain of at most 10 µM.

The compound `COc1ccc(-c2nc3ccc(S(N)(=O)=O)cc3nc2-c2ccc(OC)cc2)cc1` [Example 53, 2,3-Bis(4-methoxyphenyl)quinoxaline-6-sulfonamide] yielded an IC50 on hPASK Kinase Domain of at most 10 µM.
